Results taken from patent US20250145606A1 (Arcus Biosciences, Inc., priority 2023, published 2025).
Like-named read-outs stand apart in the source and are kept apart here.

Legend:
[1] = molecular target: c-Kit (Homo sapiens (Human), UniProt P10721); test: Inhibition of c-Kit kinase activity (HTRF KinEASE-TK); type: biochemical; settings: biochemical
How it was run: (§1)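 Human kinases were preincubated 1 h at rt with a 22-point 1:2 compound titration, then run 120 min at rt with biotinylated TK peptide and ATP (2× mix: c-Kit 16 μM, PDGFRα 1 μM, PDGFRβ 40 μM, CSF1R 20 μM). Phosphopeptide was read by HTRF TR-FRET (665/620 nm), and IC50s came from 4-parameter fits.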

[2] = molecular target: FLT3 (Homo sapiens (Human), UniProt P36888); test: Inhibition of FLT3 kinase activity (HTRF KinEASE-TK); type: biochemical; settings: biochemical
FLT3, sequence (P36888 27-993): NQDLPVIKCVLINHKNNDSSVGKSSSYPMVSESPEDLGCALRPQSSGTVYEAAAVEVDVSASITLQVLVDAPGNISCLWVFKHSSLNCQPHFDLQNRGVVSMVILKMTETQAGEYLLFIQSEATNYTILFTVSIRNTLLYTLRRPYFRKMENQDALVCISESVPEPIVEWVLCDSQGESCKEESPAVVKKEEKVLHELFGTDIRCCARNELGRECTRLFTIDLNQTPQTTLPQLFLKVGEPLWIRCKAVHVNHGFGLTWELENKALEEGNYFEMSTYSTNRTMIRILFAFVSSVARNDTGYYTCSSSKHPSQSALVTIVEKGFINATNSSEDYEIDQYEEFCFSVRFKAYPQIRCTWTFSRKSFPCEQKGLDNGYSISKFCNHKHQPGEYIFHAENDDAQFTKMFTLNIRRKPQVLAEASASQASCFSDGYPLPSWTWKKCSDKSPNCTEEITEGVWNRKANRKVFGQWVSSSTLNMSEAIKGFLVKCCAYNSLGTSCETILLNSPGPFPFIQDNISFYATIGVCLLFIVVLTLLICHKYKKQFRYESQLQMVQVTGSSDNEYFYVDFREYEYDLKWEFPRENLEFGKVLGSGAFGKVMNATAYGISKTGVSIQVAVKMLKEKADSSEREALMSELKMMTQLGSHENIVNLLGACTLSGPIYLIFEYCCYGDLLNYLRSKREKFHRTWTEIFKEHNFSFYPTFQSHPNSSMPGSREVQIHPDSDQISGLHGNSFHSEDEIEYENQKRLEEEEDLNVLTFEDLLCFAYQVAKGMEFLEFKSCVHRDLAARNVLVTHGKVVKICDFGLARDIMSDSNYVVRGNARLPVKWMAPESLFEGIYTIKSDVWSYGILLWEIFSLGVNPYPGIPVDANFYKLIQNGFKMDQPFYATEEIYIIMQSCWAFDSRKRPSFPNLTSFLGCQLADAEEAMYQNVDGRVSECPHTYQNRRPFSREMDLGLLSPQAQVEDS
Procedure: Inhibition of c-Kit, PDGFRα, PDGFRβ, CSFIR and FLT3 Kinase Activity
Compounds were evaluated to determine the potency with which they inhibit the kinase activity of the following panel of tyrosine kinases: c-Kit (SignalChem, Product #: K06-11BG), PDGFRα (SignalChem, Product #: P12-18G), PDGFRβ (SignalChem, Product #: P13-11G), CSFIR (SignalChem, Product #: C74-11G) and FLT3 (Invitrogen, Product #: PR4666C). Activity was determined as a function of phosphorylated biotinylated TK peptide generated by the transfer of phosphate from ATP as measured by the use of the HTRF KinEASE-TK assay kit (Cisbio, Product #: 62TKOPEJ). Levels of phosphorylated biotinylated TK peptide (Part 61TKOBLC of KinEASE assay kit) are quantified by its capture by phosphor-TK-Antibody-Cryptate (Part of KinEASE assay kit) and XL665-labeled Streptavidin (Part 610SAXLG of KinEASE assay kit) followed by measurement of Time-Resolved Fluorescence Resonance Energy Transfer (TR-FRET) signal. On the day of the assay, compounds were solubilized in DMSO and dispensed into a 384-well white Opti-plate (PerkinElmer, catalog #6007290) to generate a 22 point 1:2 titration. Enzyme solution was prepared for each of the tyrosine kinases in 50 mM HEPES, pH 7.4, 5 mM MgCl2 for c-Kit or 10 mM MgCl2 for FLT3, CSFIR, PDGFRa and PDGFRβ, 2 mM MnCl2, 0.01% Brij-35 and 0.01% BSA. Working enzyme concentrations were prepared for c-Kit at 2 nM (2×), PDGFRa and PDGFRß at 10 nM (2×), CSFIR at 2 nM (2×) and FLT3 at 0.4 nM (2×). Five microliters of enzyme dilution of each tyrosine kinase were added to their respective 384-well white Opti-plate pre-dispensed with compound and allowed to incubate for 1 h at rt. Utilizing the same enzyme buffer recipe, 2x substrate mixes were prepared for each enzyme as follows: For c-Kit, 1.6 μM (2×) TK substrate and 16 μM (2×) ATP (Promega, catalog #V915). For PDGFRα, 3.2 μM TK substrate and 1 μM ATP. For PDGFRβ, 3.2 μM TK substrate and 40 μM ATP. For CSFIR, […] TK substrate and 20 μM ATP. For FLT3, 3.2 μM TK substrate and 100 μM ATP. Reactions were initiated by addition of 5 μL of the respective 2x substrate mix to each well of the plates containing the respective tyrosine kinase enzymes and were allowed to proceed for 120 minutes at rt, except for FLT3, the reaction time is 45 min. Following the reaction, 10 μL of detection mix consisting of 0.2 μM (2×) of Streptavidin-XL665 and 2 μM (2×) of TK-Antibody-Cryptate prepared in detection buffer (Part 62SDBRDF of KinEASE assay kit) was added and then allowed to incubate for 60 min. The TR-FRET signal was quantified by measuring the ratio of emission at 665 nm to 620 nm after excitation at 320 nm by reading on a PerkinElmer Envision multimode reader. Compound potencies (IC50 values) were determined using a standard 4-parameter non-linear regression fit.

[3] = molecular target: CSF1R (Homo sapiens (Human), UniProt P07333); test: Inhibition of CSF1R kinase activity (HTRF KinEASE-TK); settings: biochemical
CSF1R, sequence (P07333 20-972): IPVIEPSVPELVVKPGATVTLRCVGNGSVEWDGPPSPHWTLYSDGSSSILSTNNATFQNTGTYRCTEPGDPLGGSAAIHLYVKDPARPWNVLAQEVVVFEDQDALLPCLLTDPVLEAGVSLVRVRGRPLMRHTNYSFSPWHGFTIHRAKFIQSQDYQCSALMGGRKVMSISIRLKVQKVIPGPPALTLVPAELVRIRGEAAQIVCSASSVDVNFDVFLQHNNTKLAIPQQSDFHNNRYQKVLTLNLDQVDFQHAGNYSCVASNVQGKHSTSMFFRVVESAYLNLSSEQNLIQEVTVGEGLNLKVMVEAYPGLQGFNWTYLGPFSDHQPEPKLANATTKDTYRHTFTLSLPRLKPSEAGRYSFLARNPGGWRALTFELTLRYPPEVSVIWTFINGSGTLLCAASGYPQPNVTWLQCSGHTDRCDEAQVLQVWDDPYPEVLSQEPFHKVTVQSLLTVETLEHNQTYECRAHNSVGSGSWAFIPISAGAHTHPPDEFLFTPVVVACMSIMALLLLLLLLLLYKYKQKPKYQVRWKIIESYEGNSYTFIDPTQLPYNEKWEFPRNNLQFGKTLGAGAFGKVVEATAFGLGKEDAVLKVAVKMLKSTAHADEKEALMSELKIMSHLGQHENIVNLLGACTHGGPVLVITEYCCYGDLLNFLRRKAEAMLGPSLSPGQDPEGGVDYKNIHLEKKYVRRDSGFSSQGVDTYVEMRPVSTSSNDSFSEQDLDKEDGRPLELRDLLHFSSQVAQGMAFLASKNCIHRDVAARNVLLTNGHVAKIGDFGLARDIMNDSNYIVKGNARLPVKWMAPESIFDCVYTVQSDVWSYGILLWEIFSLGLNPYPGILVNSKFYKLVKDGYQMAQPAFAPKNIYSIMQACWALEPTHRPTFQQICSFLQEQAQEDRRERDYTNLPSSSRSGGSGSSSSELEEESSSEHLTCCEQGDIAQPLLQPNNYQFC
How it was run: as §1

[4] = molecular target: PDGFRα (Homo sapiens (Human), UniProt P16234); test: Inhibition of PDGFRα kinase activity (HTRF KinEASE-TK); settings: biochemical
PDGFRα, sequence (P16234 24-1089): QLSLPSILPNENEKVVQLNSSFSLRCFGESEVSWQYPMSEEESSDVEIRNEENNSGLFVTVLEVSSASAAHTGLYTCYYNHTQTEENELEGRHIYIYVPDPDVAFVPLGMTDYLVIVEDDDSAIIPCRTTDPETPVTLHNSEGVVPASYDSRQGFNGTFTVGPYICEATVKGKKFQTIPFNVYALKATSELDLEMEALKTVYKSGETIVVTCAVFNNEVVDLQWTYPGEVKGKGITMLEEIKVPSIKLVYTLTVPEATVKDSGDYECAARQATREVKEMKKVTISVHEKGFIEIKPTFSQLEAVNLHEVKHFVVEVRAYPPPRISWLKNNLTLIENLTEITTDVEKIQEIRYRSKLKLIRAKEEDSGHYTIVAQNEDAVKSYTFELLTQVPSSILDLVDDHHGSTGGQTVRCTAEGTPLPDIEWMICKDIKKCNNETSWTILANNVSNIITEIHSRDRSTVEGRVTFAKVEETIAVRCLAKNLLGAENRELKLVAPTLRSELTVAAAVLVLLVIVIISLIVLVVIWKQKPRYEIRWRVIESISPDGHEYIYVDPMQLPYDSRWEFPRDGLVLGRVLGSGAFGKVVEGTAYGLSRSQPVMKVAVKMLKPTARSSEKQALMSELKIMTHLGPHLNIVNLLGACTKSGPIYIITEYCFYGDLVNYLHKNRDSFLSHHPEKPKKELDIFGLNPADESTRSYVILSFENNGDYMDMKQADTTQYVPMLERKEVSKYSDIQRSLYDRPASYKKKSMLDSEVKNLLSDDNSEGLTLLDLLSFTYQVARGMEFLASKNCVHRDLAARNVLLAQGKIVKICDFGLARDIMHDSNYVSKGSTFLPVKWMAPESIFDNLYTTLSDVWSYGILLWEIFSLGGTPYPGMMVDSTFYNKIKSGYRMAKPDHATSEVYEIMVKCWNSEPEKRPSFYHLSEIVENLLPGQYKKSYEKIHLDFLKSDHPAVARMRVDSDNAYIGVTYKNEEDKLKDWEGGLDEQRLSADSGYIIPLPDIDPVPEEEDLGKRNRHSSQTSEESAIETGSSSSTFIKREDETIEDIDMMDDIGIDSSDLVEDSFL
How it was run: as §1

[5] = molecular target: PDGFRβ (Homo sapiens (Human), UniProt P09619); test: Inhibition of PDGFRβ kinase activity (HTRF KinEASE-TK); settings: biochemical
PDGFRβ, sequence (P09619 33-1106): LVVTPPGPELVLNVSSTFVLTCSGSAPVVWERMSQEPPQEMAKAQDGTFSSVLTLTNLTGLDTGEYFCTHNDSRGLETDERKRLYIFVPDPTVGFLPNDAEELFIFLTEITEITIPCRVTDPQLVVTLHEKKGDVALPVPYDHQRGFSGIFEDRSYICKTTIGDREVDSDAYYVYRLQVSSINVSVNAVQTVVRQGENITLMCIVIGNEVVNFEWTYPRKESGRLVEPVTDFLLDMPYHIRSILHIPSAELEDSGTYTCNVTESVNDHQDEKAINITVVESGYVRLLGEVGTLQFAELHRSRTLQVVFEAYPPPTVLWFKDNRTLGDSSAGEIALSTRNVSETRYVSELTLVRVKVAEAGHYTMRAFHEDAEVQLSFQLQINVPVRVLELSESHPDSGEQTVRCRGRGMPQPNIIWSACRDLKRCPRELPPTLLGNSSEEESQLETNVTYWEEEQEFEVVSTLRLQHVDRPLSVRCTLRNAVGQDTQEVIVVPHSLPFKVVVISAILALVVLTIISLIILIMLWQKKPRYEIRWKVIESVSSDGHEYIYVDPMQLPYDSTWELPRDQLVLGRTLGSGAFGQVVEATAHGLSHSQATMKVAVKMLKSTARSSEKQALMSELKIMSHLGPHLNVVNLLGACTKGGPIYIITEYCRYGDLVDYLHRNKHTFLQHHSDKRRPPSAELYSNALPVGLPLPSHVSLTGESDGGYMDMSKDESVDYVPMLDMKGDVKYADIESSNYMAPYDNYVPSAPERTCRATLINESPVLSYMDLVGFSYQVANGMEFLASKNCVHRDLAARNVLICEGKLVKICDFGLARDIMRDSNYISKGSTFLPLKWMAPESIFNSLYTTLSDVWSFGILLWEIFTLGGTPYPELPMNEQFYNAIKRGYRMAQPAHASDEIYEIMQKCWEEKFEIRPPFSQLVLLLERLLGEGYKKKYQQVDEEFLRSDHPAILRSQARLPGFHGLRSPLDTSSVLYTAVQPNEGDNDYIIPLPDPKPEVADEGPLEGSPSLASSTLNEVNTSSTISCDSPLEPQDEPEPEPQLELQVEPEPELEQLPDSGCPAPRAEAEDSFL
How it was run: as §1

[6] = system: Phospho-KIT (Y703) in M07e cells; test: Phospho-KIT (Y703) cellular assay in M07e cells; type: cell-based; settings: M-07e, M07e cells
How it was run: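 Serum-starved M07e cells preincubated 50 min at 37° C with 11-point half-log compound titration, then stimulated 10 min with SCF at 90.9 ng/mL final. Fixed, permeabilized cells stained for phospho-KIT Y703 and read by flow cytometry (live-gated geometric mean); IC50 by 4-parameter fit normalized to DMSO and positive control.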

[7] = Phospho-KIT (Y703), read-out: M07e Cell IC50
[8] = read-out: Phospho-KIT (Y703) cellular IC50

c-Kit, sequence (P10721 26-976): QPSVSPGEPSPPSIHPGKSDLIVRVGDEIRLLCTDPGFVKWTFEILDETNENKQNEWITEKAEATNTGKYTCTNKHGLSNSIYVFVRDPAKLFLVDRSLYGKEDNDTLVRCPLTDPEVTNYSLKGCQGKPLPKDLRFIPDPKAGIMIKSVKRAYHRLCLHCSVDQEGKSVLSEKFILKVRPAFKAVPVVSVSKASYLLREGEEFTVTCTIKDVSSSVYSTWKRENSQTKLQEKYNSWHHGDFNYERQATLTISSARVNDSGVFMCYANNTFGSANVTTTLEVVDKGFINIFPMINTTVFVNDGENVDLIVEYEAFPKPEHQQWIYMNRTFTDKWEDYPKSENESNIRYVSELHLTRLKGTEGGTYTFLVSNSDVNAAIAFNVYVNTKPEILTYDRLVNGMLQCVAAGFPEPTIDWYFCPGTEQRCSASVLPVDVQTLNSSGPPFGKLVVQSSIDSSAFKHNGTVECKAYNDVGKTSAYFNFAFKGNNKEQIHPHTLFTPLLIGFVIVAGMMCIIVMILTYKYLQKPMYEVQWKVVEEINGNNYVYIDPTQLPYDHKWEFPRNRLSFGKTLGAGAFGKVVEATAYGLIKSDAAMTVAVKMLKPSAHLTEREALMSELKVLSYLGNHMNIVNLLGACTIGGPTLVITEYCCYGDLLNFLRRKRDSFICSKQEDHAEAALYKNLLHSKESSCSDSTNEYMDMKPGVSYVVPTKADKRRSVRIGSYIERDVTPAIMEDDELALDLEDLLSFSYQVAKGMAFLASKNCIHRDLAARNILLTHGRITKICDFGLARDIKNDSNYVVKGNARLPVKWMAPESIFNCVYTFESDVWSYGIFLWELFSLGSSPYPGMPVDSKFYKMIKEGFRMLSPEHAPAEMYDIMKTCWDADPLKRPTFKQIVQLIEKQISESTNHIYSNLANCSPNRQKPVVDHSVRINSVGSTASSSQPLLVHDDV

SMILES | IC50 [1] [nM] | IC50 [2] [nM] | IC50 [3] [nM] | IC50 [4] [nM] | IC50 [5] [nM] | IC50 ([1]; HTRF KinEASE-TK) [nM] | IC50 ([2]; HTRF KinEASE-TK) [nM] | IC50 ([3]; HTRF KinEASE-TK) [nM] | IC50 ([4]; HTRF KinEASE-TK) [nM] | IC50 ([5]; HTRF KinEASE-TK) [nM] | IC50 [6, 7] [nM] | IC50 [6, 8] [nM]
Cc1cc(F)c(C(=O)Nc2ccc(OC3CC3)cn2)cc1NC(=O)c1cnc(NC(=O)N2CCC2)s1 [Example 6, 2-(Azetidine-1-carbonylamino)-N-[5-[(5-cyclopropyloxypyridin-2-yl)carbamoyl]-4-fluoro-2-methylphenyl]-1,3-thiazole-5-carboxamide] | < 100 | > 1000 | < 100 | < 100 | < 100 | – | – | – | – | – | – | –
Cc1ncc(C(=O)Nc2cc(C(=O)Nc3ccc(C(F)(F)F)cn3)c(F)cc2C)s1 [Example 14, N-[4-Fluoro-2-methyl-5-[[5-(trifluoromethyl)pyridin-2-yl]carbamoyl]phenyl]-2-methyl-1,3-thiazole-5-carboxamide] | – | – | – | – | – | < 100 | > 1000 | > 1000 | > 1000 | > 1000 | – | –
Cc1ncc(C(=O)Nc2cc(C(=O)N[C@@H]3C[C@@H]3c3ccccc3Cl)c(F)cc2C)s1 [Example 101, N-[5-[[(1R,2R)-2-(2-chlorophenyl)cyclopropyl]carbamoyl]-4-fluoro-2-methylphenyl]-2-methyl-1,3-thiazole-5-carboxamide] | – | – | – | – | – | < 100 | – | 100 to 1000 | < 100 | 100 to 1000 | < 100 | –
Cc1cc(F)c(C(=O)Nc2ccc(O[C@@H]3CCOC3)cn2)cc1NC(=O)c1cnc(N)s1 [Example 198, 2-Amino-N-[4-fluoro-2-methyl-5-[[5-[(3R)-oxolan-3-yl]oxypyridin-2-yl]carbamoyl]phenyl]-1,3-thiazole-5-carboxamide] | – | – | – | – | – | < 100 | – | > 1000 | > 1000 | 100 to 1000 | < 100 | –
Nc1ncc(C(=O)Nc2cc(C(=O)Nc3ccc(C4CC4)nn3)c(F)cc2Cl)s1 [Example 201, 2-Amino-N-[2-chloro-5-[(6-cyclopropylpyridazin-3-yl)carbamoyl]-4-fluorophenyl]-1,3-thiazole-5-carboxamide] | – | – | – | – | – | < 100 | – | 100 to 1000 | > 1000 | 100 to 1000 | < 100 | –
CC(C)Oc1ccc(NC(=O)c2cc(NC(=O)c3cnc(N)s3)c(Cl)cc2F)nc1 [Example 207, 2-Amino-N-[2-chloro-4-fluoro-5-[(5-propan-2-yloxypyridin-2-yl)carbamoyl]phenyl]-1,3-thiazole-5-carboxamide] | – | – | – | – | – | < 100 | – | 100 to 1000 | > 1000 | > 1000 | < 100 | –
CCc1ccc(NC(=O)c2cc(NC(=O)c3cnc(N)s3)c(F)cc2F)nc1 [Example 214, 2-Amino-N-[5-[(5-ethylpyridin-2-yl)carbamoyl]-2,4-difluorophenyl]-1,3-thiazole-5-carboxamide] | – | – | – | – | – | < 100 | – | > 1000 | > 1000 | > 1000 | < 100 | –
Cc1cc(F)c(C(=O)Nc2ccc(F)cc2)cc1NC(=O)c1cnc(N)s1 [Example 233, 2-Amino-N-[4-fluoro-5-[(4-fluorophenyl)carbamoyl]-2-methylphenyl]-1,3-thiazole-5-carboxamide] | – | – | – | – | – | < 100 | – | > 1000 | > 1000 | > 1000 | < 100 | –
Cc1cc(F)c(C(=O)Nc2ccc(COC(F)F)cn2)cc1NC(=O)c1cnc(N)s1 [Example 254, 2-Amino-N-[5-[[5-(difluoromethoxymethyl)pyridin-2-yl]carbamoyl]-4-fluoro-2-methylphenyl]-1,3-thiazole-5-carboxamide] | – | – | – | – | – | < 100 | – | 100 to 1000 | > 1000 | < 100 | < 100 | –
Cc1ncc(C(=O)Nc2cc(C(=O)NCc3ccc(F)cc3)c(F)cc2C)s1 [Example 262, N-[4-fluoro-5-[(4-fluorophenyl)methylcarbamoyl]-2-methylphenyl]-2-methyl-1,3-thiazole-5-carboxamide] | – | – | – | – | – | < 100 | – | > 1000 | > 1000 | > 1000 | – | < 100
Cc1ncc(C(=O)Nc2cc(C(=O)NCc3ccc(F)cc3F)c(F)cc2C)s1 [Example 263, N-[5-[(2,4-difluorophenyl)methylcarbamoyl]-4-fluoro-2-methylphenyl]-2-methyl-1,3-thiazole-5-carboxamide] | – | – | – | – | – | < 100 | – | > 1000 | > 1000 | > 1000 | – | < 100
Cc1ncc(C(=O)Nc2cc(C(=O)NCc3cc(F)cc(F)c3)c(F)cc2C)s1 [Example 264, N-[5-[(3,5-difluorophenyl)methylcarbamoyl]-4-fluoro-2-methylphenyl]-2-methyl-1,3-thiazole-5-carboxamide] | – | – | – | – | – | < 100 | – | > 1000 | > 1000 | > 1000 | – | < 100
Cc1ncc(C(=O)Nc2cc(C(=O)NCc3cccc(F)c3F)c(F)cc2C)s1 [Example 265, N-[5-[(2,3-difluorophenyl)methylcarbamoyl]-4-fluoro-2-methylphenyl]-2-methyl-1,3-thiazole-5-carboxamide] | – | – | – | – | – | < 100 | – | > 1000 | > 1000 | > 1000 | – | < 100
Cc1ncc(C(=O)Nc2cc(C(=O)NCc3ccc(F)c(F)c3)c(F)cc2C)s1 [Example 266, N-[5-[(3,4-difluorophenyl)methylcarbamoyl]-4-fluoro-2-methylphenyl]-2-methyl-1,3-thiazole-5-carboxamide] | – | – | – | – | – | < 100 | – | > 1000 | > 1000 | > 1000 | – | < 100
Cc1ncc(C(=O)Nc2cc(C(=O)NCc3ccc(OC(F)(F)F)cc3)c(F)cc2C)s1 [Example 267, N-[4-fluoro-2-methyl-5-[[4-(trifluoromethoxy)phenyl]methylcarbamoyl]phenyl]-2-methyl-1,3-thiazole-5-carboxamide] | – | – | – | – | – | 100 to 1000 | – | > 1000 | > 1000 | > 1000 | – | < 100
Cc1ncc(C(=O)Nc2cc(C(=O)NCc3ccc(C(F)(F)F)cc3)c(F)cc2C)s1 [Example 268, N-[4-fluoro-2-methyl-5-[[4-(trifluoromethyl)phenyl]methylcarbamoyl]phenyl]-2-methyl-1,3-thiazole-5-carboxamide] | – | – | – | – | – | < 100 | – | > 1000 | > 1000 | > 1000 | – | < 100
Cc1ncc(C(=O)Nc2cc(C(=O)NCc3ccc(OC(F)(F)F)c(F)c3)c(F)cc2C)s1 [Example 269, N-[4-fluoro-5-[[3-fluoro-4-(trifluoromethoxy)phenyl]methylcarbamoyl]-2-methylphenyl]-2-methyl-1,3-thiazole-5-carboxamide] | – | – | – | – | – | 100 to 1000 | – | > 1000 | > 1000 | > 1000 | – | < 100
Cc1ncc(C(=O)Nc2cc(C(=O)NCc3ccc(OC(F)(F)F)cc3F)c(F)cc2C)s1 [Example 270] | – | – | – | – | – | 100 to 1000 | – | > 1000 | > 1000 | > 1000 | – | 100 to 1000
